Where a SMILES comes first, the peptide text is derived from it. Bridges are numbered along the chain shown (N, C = ends). [ ]: non-standard residue; d: D form. Bta = N[C@@H](Cc1csc2ccccc12)C(=O)O; Hyp = O=C(O)[C@@H]1C[C@@H](O)CN1; NMeNle = CCCC[C@H](NC)C(=O)O; NMeA = CN[C@@H](C)C(=O)O; Orn = NCCC[C@H](N)C(=O)O; Dab = NCC[C@H](N)C(=O)O; Sar = CNCC(=O)O
The compounds below were run against PD-1-Ig binding to PD-L1-TVMV-His (PD-L1-His) (Homo sapiens (Human), UniProt Q9NZQ7) (assay: PD-1/PD-L1 Homogenous Time-Resolved Fluorescence (HTRF) binding assay (PD-1-Ig/PD-L1-His)). Details: PD-1-Ig (20 nM)/PD-L1-His (10 nM); numeric values.
Chain of PD-1-Ig binding to PD-L1-TVMV-His (PD-L1-His) (Q9NZQ7 other isoform, or with tags, fused parts or gaps): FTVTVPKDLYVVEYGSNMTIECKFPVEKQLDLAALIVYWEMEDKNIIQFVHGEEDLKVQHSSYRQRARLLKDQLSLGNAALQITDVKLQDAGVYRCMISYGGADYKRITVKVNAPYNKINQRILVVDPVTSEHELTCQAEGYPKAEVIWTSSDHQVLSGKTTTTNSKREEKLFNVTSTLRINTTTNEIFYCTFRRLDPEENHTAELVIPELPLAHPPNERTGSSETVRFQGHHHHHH
Description: Methods for Testing the Ability of Macrocyclic Compounds to Compete for the Binding of PD-1 to PD-L1 Using Homogenous Time-Resolved Fluorescence (HTRF) Binding Assays
The ability of the macrocyclic compounds of the present disclosure to bind to PD-L1 was investigated using a PD-1/PD-L1 Homogenous Time-Resolved Fluorescence (HTRF) binding assay.
Homogenous Time-Resolved Fluorescence (HTRF) Assays of Binding of Soluble PD-1 to Soluble PD-L1. Soluble PD-1 and soluble PD-L1 refers to proteins with carboxyl-end truncations that remove the transmembrane-spanning regions and are fused to heterologous sequences, specifically the Fc portion of the human immunoglobulin G sequence (Ig) or the hexahistidine epitope tag (His). All binding studies were performed in an HTRF assay buffer consisting of dPBS supplemented with 0.1% (w/v) bovine serum albumin and 0.05% (v/v) Tween-20. For the PD-1-Ig/PD-L1-His binding assay, inhibitors were pre-incubated with PD-L1-His (10 nM final) for 15 m in 4 μl of assay buffer, followed by addition of PD-1-Ig (20 nM final) in 1 μl of assay buffer and further incubation for 15 m. PD-L1 fusion proteins from either human, cynomologous macaques, mouse, or other species were used. HTRF detection was achieved using europium crypate-labeled anti-Ig monoclonal antibody (1 nM final) and allophycocyanin (APC) labeled anti-His monoclonal antibody (20 nM final). Antibodies were diluted in HTRF detection buffer and 5 μl was dispensed on top of binding reaction. […] Additional binding assays were established between PD-1-Ig/PD-L2-His (20 and 5 nM, respectively), CD80-His/PD-L1-Ig (100 and 10 nM, respectively) and CD80-His/CTLA4-Ig (10 and 5 nM, respectively).
Recombinant Proteins. […] Human PD-L2-His (Sino Biologicals), CD80-His (Sino Biologicals), CTLA4-Ig (RnD Systems) were all obtained through commercial sources.

| IC50 [nM] | SMILES |
| --- | --- |
| 14 | CCCC[C@H]1C(=O)N(C)[C@@H](CCCC)C(=O)N[C@H]2CCC(=O)NCCCC[C@H](NC(=O)[C@H](Cc3c[nH]c4ccccc34)NC(=O)[C@@H]3C[C@@H](O)CN3C(=O)[C@H](CCC(N)=O)NC(=O)[C@H](Cc3c[nH]cn3)NC(=O)[C@@H]3CCCN3C(=O)[C@H](CC(N)=O)NC(=O)[C@@H](C)NC(=O)[C@H](Cc3ccc(O)cc3)NC(=O)CSC[C@@H](C(=O)NCC(N)=O)NC2=O)C(=O)N[C@@H](Cc2c[nH]c3ccccc23)C(=O)N1C [Example 5007] ({CH2CO}-Y[dA]NPHQ[Hyp]WKW[NMeNle][NMeNle]ECG-NH2; lactam 9-13; thioether N-14) |
| 7 | CCCC[C@H]1C(=O)N(C)[C@@H](CCCC)C(=O)N[C@@H](C)C(=O)N[C@H](C(=O)NCC(N)=O)CSCC(=O)N[C@@H](Cc2ccc(O)cc2)C(=O)N(C)[C@@H](C)C(=O)N[C@H]2CCCNC(=O)CC[C@@H](NC(=O)[C@H](Cc3cn(C(=O)C(F)(F)F)cn3)NC(=O)[C@@H]3CCCC3C2=O)C(=O)N2C[C@H](O)C[C@H]2C(=O)N[C@@H](Cc2c[nH]c3ccccc23)C(=O)N[C@@H](CO)C(=O)N[C@@H](Cc2c[nH]c3ccccc23)C(=O)N1C (stereo partly drawn) [Example 1403] |

Same assay, conditions: PD-1-Ig (20 nM)/PD-L1-His (10 nM); range classes

| IC50 [nM] | SMILES |
| --- | --- |
| 10 to 99 | CCCC[C@H]1C(=O)N(C)[C@@H](CCCC)C(=O)N[C@H]2CCC(=O)NCCC[C@H](NC(=O)[C@H](Cc3c[nH]c4ccccc34)NC(=O)CN(C)C(=O)[C@H](CC(C)C)NC(=O)[C@H](Cc3c[nH]cn3)NC(=O)[C@@H]3CCCN3C(=O)[C@H](CC(N)=O)NC(=O)[C@H](C)N(C)C(=O)[C@H](Cc3ccccc3)NC(=O)CSC[C@@H](C(=O)NCC(N)=O)NC2=O)C(=O)N[C@@H](Cc2c[nH]c3ccccc23)C(=O)N1C [Example 5003] ({CH2CO}-F[NMeA]NPHL[Sar]W[Orn]W[NMeNle][NMeNle]ECG-NH2; lactam 9-13; thioether N-14) |
| 3 to 9.9 | CCCC[C@H]1C(=O)N(C)[C@@H](CCCC)C(=O)N[C@H]2CCC(=O)NCCCC[C@H](NC(=O)[C@H](Cc3c[nH]c4ccccc34)NC(=O)CN(C)C(=O)[C@H](CC(C)C)NC(=O)[C@H](Cc3c[nH]cn3)NC(=O)[C@@H]3CCCN3C(=O)[C@H](CC(N)=O)NC(=O)[C@H](C)N(C)C(=O)[C@H](Cc3ccccc3)NC(=O)CSC[C@@H](C(=O)NCC(N)=O)NC2=O)C(=O)N[C@@H](Cc2c[nH]c3ccccc23)C(=O)N1C [Example 5001] ({CH2CO}-F[NMeA]NPHL[Sar]WKW[NMeNle][NMeNle]ECG-NH2; lactam 9-13; thioether N-14) |
| 100 to 1000 | CCCC[C@H]1C(=O)N(C)[C@@H](CCCC)C(=O)N[C@@H](CC(C)C)C(=O)N[C@H](C(=O)NCC(N)=O)CSCC(=O)N[C@@H](Cc2ccc(O)cc2)C(=O)N(C)[C@@H](C)C(=O)N[C@H]2CCC(=O)NCC[C@H](NC(=O)[C@@H]3CCCN3C2=O)C(=O)N[C@@H](CC(C)C)C(=O)N2CCC[C@H]2C(=O)N[C@@H](Cc2c[nH]c3ccccc23)C(=O)N[C@@H](CO)C(=O)N[C@@H](Cc2c[nH]c3ccccc23)C(=O)N1C [Example 10503] |
| 10 to 99 | CCCC[C@H]1C(=O)N(C)[C@@H](CCCC)C(=O)N[C@@H](C)C(=O)N[C@H](C(=O)NCC(N)=O)CSCC(=O)N[C@@H](Cc2ccc(O)cc2)C(=O)N(C)[C@@H](C)C(=O)N[C@H]2CCCNC(=O)CC[C@H](NC(=O)[C@H](Cc3cnc[nH]3)NC(=O)[C@@H]3CCCN3C2=O)C(=O)N2C[C@H](O)C[C@H]2C(=O)N[C@@H](Cc2c[nH]c3ccccc23)C(=O)N[C@@H](CO)C(=O)N[C@@H](Cc2c[nH]c3ccccc23)C(=O)N1C [Example 1506] ({CH2CO}-Y[NMeA][Orn]PHE[Hyp]WSW[NMeNle][NMeNle]ACG-NH2; lactam 3-6; thioether N-14) |
| 100 to 1000 | CCCC[C@H]1C(=O)N(C)[C@@H](CCCC)C(=O)N[C@@H](CC(C)C)C(=O)N[C@H](C(=O)NCC(N)=O)CSCC(=O)N[C@@H](Cc2ccc(O)cc2)C(=O)N(C)[C@@H](C)C(=O)N[C@H]2CCC(=O)NCCCC[C@H](NC(=O)[C@@H]3CCCN3C2=O)C(=O)N[C@@H](CC(C)C)C(=O)N2CCC[C@H]2C(=O)N[C@@H](Cc2c[nH]c3ccccc23)C(=O)N[C@@H](CO)C(=O)N[C@@H](Cc2c[nH]c3ccccc23)C(=O)N1C [Example 10501] |
| 10 to 99 | CCCC[C@H]1C(=O)N(C)[C@@H](CCCC)C(=O)N[C@@H](C)C(=O)N[C@H](C(=O)NCC(N)=O)CSCC(=O)N[C@@H](Cc2ccc(O)cc2)C(=O)N(C)[C@@H](C)C(=O)N[C@H]2CC(=O)NCCC[C@H](NC(=O)[C@H](Cc3cnc[nH]3)NC(=O)[C@@H]3CCCN3C2=O)C(=O)N2C[C@H](O)C[C@H]2C(=O)N[C@@H](Cc2c[nH]c3ccccc23)C(=O)N[C@@H](CO)C(=O)N[C@@H](Cc2c[nH]c3ccccc23)C(=O)N1C [Example 1508] ({CH2CO}-Y[NMeA]DPH[Orn][Hyp]WSW[NMeNle][NMeNle]ACG-NH2; lactam 3-6; thioether N-14) |
| 10 to 99 | CCCC[C@H]1C(=O)N(C)[C@@H](CCCC)C(=O)N[C@@H](CCC(N)=O)C(=O)N[C@H](C(=O)NCC(N)=O)CSCC(=O)N[C@@H](Cc2ccc(O)cc2)C(=O)N[C@H](C)C(=O)N[C@H]2CC(=O)NCCCC[C@H](NC(=O)[C@H](Cc3c[nH]cn3)NC(=O)[C@@H]3CCCN3C2=O)C(=O)N2C[C@H](O)C[C@H]2C(=O)N[C@@H](Cc2c[nH]c3ccccc23)C(=O)N[C@@H](CO)C(=O)N[C@@H](Cc2c[nH]c3ccccc23)C(=O)N1C [Example 5006] ({CH2CO}-Y[dA]DPHK[Hyp]WSW[NMeNle][NMeNle]QCG-NH2; lactam 3-6; thioether N-14) |
| 3 to 9.9 | CCCC[C@H]1C(=O)N(C)[C@@H](CCCC)C(=O)N[C@H]2CCC(=O)NCCCC[C@H](NC(=O)[C@H](Cc3c[nH]c4ccccc34)NC(=O)[C@@H]3CCCN3C(=O)[C@H](CC(C)C)NC(=O)[C@H](Cc3c[nH]cn3)NC(=O)[C@@H]3CCCN3C(=O)[C@H](CC(N)=O)NC(=O)[C@H](C)N(C)C(=O)[C@H](Cc3ccc(O)cc3)NC(=O)CSC[C@@H](C(=O)NCC(N)=O)NC2=O)C(=O)N[C@@H](Cc2csc3ccccc23)C(=O)N1C [Example 5004] ({CH2CO}-Y[NMeA]NPHLPWK[Bta][NMeNle][NMeNle]ECG-NH2; lactam 9-13; thioether N-14) |
| 10 to 99 | CCCC[C@H]1C(=O)N(C)[C@@H](CCCC)C(=O)N[C@H]2CCCC[C@H](NC(=O)[C@H](Cc3c[nH]c4ccccc34)NC(=O)[C@@H]3CCCN3C(=O)[C@H](CC(C)C)NC(=O)[C@H](Cc3cnc[nH]3)NC(=O)[C@@H]3CCCN3C(=O)[C@H](CC(N)=O)NC(=O)[C@H](C)N(C)C(=O)[C@H](Cc3ccc(O)cc3)NC(=O)CSC[C@@H](C(=O)NCC(N)=O)NC2=O)C(=O)N[C@@H](Cc2c[nH]c3ccccc23)C(=O)N1C [Example 7156] |
| 10 to 99 | CCCC[C@H]1C(=O)N(C)[C@@H](CCCC)C(=O)N[C@@H](C)C(=O)N[C@H](C(=O)NCC(N)=O)CSCC(=O)N[C@@H](Cc2ccc(O)cc2)C(=O)N(C)[C@@H](C)C(=O)N[C@H]2CCNC(=O)CC[C@H](NC(=O)[C@H](Cc3cnc[nH]3)NC(=O)[C@@H]3CCCN3C2=O)C(=O)N2C[C@H](O)C[C@H]2C(=O)N[C@@H](Cc2c[nH]c3ccccc23)C(=O)N[C@@H](CO)C(=O)N[C@@H](Cc2c[nH]c3ccccc23)C(=O)N1C [Example 1504] ({CH2CO}-Y[NMeA][Dab]PHE[Hyp]WSW[NMeNle][NMeNle]ACG-NH2; lactam 3-6; thioether N-14) |
| 10 to 99 | CCCC[C@H]1C(=O)N(C)[C@@H](CCCC)C(=O)N[C@@H](CCCNC(=N)N)C(=O)N[C@H](C(=O)NCC(N)=O)CSCC(=O)N[C@@H](Cc2ccc(O)cc2)C(=O)N(C)[C@@H](C)C(=O)N[C@H]2CCCNC(=O)CC[C@H](NC(=O)[C@H](C)NC(=O)[C@@H]3CCCN3C2=O)C(=O)N2C[C@H](O)C[C@H]2C(=O)N[C@@H](Cc2c[nH]c3ccccc23)C(=O)N[C@@H](CO)C(=O)N[C@@H](Cc2c[nH]c3ccccc23)C(=O)N1C [Example 1402] ({CH2CO}-Y[NMeA][Orn]PAE[Hyp]WSW[NMeNle][NMeNle]RCG-NH2; lactam 3-6; thioether N-14) |
| 10 to 99 | CCCC[C@H]1C(=O)N(C)[C@@H](CCCC)C(=O)N[C@@H](CCCNC(=N)N)C(=O)N[C@H](C(=O)NCC(N)=O)CSCC(=O)N[C@@H](Cc2ccc(O)cc2)C(=O)N(C)[C@@H](C)C(=O)N[C@H]2CCNC(=O)CC[C@H](NC(=O)[C@H](C)NC(=O)[C@@H]3CCCN3C2=O)C(=O)N2C[C@H](O)C[C@H]2C(=O)N[C@@H](Cc2c[nH]c3ccccc23)C(=O)N[C@@H](CO)C(=O)N[C@@H](Cc2c[nH]c3ccccc23)C(=O)N1C [Example 1400] ({CH2CO}-Y[NMeA][Dab]PAE[Hyp]WSW[NMeNle][NMeNle]RCG-NH2; lactam 3-6; thioether N-14) |
| 100 to 1000 | CCCC[C@H]1C(=O)N(C)[C@@H](CCCC)C(=O)N[C@@H](CC(C)C)C(=O)N[C@H](C(=O)NCC(N)=O)CSCC(=O)N[C@@H](Cc2ccc(O)cc2)C(=O)N(C)[C@@H](C)C(=O)N[C@H]2CCC(=O)NC[C@H](NC(=O)[C@@H]3CCCN3C2=O)C(=O)N[C@@H](CC(C)C)C(=O)N2CCC[C@H]2C(=O)N[C@@H](Cc2c[nH]c3ccccc23)C(=O)N[C@@H](CO)C(=O)N[C@@H](Cc2c[nH]c3ccccc23)C(=O)N1C [Example 10500] |
